Active and inactive are the calls of the source. Bounds are passed on as bounds.

The subject of series [1] is Staphylococcus aureus. The series is described as follows: Antibacterial activity against Staphylococcus aureus KCTC 1621 assessed as disruption of cellular structure at 3 x MIC after 1 hr by transmission electron microscopic analysis. Format: functional, organism-based.
Series [2] relates to Escherichia coli. The series is described as follows: Antibacterial activity against Escherichia coli KCTC 1682 assessed as disruption of cellular structure at 3 x MIC after 1 hr by transmission electron microscopic analysis. Format: functional, organism-based.
The test system of series [3] is Staphylococcus aureus. The series is described as follows: Antibacterial activity against Staphylococcus aureus KCTC 1621 assessed as growth inhibition at 50 ug/ml after 18 to 20 hrs by broth microdilution method in presence of trypsin. Format: functional, organism-based. (In broth dilution the organism is exposed to a series of concentrations in liquid medium.)
For series [4], the system named is Escherichia coli. The series is described as follows: Antibacterial activity against Escherichia coli KCTC 1682 assessed as growth inhibition at 50 ug/ml after 18 to 20 hrs by broth microdilution method in presence of trypsin. Format: functional, organism-based.
Series [5] deals with Staphylococcus aureus. The series is described as follows: Antibacterial activity against Staphylococcus aureus KCTC 1621 assessed as growth inhibition after 18 to 20 hrs by broth microdilution method in presence of NaCl. Format: functional.
Series [6] has as its system Bacillus subtilis. The series is described as follows: Antibacterial activity against Bacillus subtilis KCTC 3068 assessed as growth inhibition after 18 to 20 hrs by broth microdilution method in presence of NaCl. Format: functional.
Series [7] deals with Staphylococcus epidermidis. The series is described as follows: Antibacterial activity against Staphylococcus epidermidis KCTC 1917 assessed as growth inhibition after 18 to 20 hrs by broth microdilution method in presence of NaCl. Format: functional.
The subject of series [8] is Salmonella typhimurium. The series is described as follows: Antibacterial activity against Salmonella typhimurium KCTC 1926 assessed as growth inhibition after 18 to 20 hrs by broth microdilution method in presence of NaCl. Format: functional, Salmonella enterica subsp. enterica serovar Typhimurium. Conditions: Salmonella enterica.
For series [9], the system named is Pseudomonas aeruginosa. The series is described as follows: Antibacterial activity against Pseudomonas aeruginosa KCTC 1637 assessed as growth inhibition after 18 to 20 hrs by broth microdilution method in presence of NaCl. Format: functional.
For series [10], the system named is Escherichia coli. The series is described as follows: Antibacterial activity against Escherichia coli KCTC 1682 assessed as growth inhibition after 18 to 20 hrs by broth microdilution method in presence of NaCl. Format: functional.
In series [11] the test system is Staphylococcus aureus. The series is described as follows: Antibacterial activity against methicillin-resistant Staphylococcus aureus CCARM 3095 assessed as growth inhibition after 18 to 20 hrs by broth microdilution method. Format: functional.
Series [12] in a line: Hemolytic activity in human RBC assessed as hemoglobin release after 1 hr. Format: ADME, cell-based, Erythrocyte. Conditions: red blood cells (RBC).
Series [13] concerns Staphylococcus aureus. The series is described as follows: Antibacterial activity against Staphylococcus aureus KCTC 1621 assessed as growth inhibition after 18 to 20 hrs by broth microdilution method. Format: functional.
Series [14] relates to Bacillus subtilis. The series is described as follows: Antibacterial activity against Bacillus subtilis KCTC 3068 assessed as growth inhibition after 18 to 20 hrs by broth microdilution method. Format: functional.
Series [15] deals with Staphylococcus epidermidis. The series is described as follows: Antibacterial activity against Staphylococcus epidermidis KCTC 1917 assessed as growth inhibition after 18 to 20 hrs by broth microdilution method. Format: functional.
Series [16] has as its system Salmonella typhimurium. The series is described as follows: Antibacterial activity against Salmonella typhimurium KCTC 1926 assessed as growth inhibition after 18 to 20 hrs by broth microdilution method. Format: functional, Salmonella enterica subsp. enterica serovar Typhimurium. Conditions: Salmonella enterica.
Series [17] deals with Pseudomonas aeruginosa. The series is described as follows: Antibacterial activity against Pseudomonas aeruginosa KCTC 1637 assessed as growth inhibition after 18 to 20 hrs by broth microdilution method. Format: functional.
In series [18] the test system is Escherichia coli. The series is described as follows: Antibacterial activity against Escherichia coli KCTC 1682 assessed as growth inhibition after 18 to 20 hrs by broth microdilution method. Format: functional.
Series [19] relates to Staphylococcus aureus. The series is described as follows: Antibacterial activity against methicillin-resistant Staphylococcus aureus CCARM 3089 assessed as growth inhibition after 18 to 20 hrs by broth microdilution method. Format: functional.
In series [20] the test system is Staphylococcus aureus. The series is described as follows: Antibacterial activity against methicillin-resistant Staphylococcus aureus CCARM 3090 assessed as growth inhibition after 18 to 20 hrs by broth microdilution method. Format: functional.

Take `CCCCCCCCCCn1c[n+](CCCCCCCCCC)cc1C[C@H](N)C(=O)N[C@@H](CCCNC(=N)N)C(=O)N[C@@H](CCCNC(=N)N)C(N)=O`: the outcome in series [1] and in series [2] was Active. Besides, the “growth inhibition (GI)” value in series [3] and in series [4] was “Active” throughout. The MIC in series [5] is 8 µg/mL; in series [6], 4 µg/mL; in series [7], 4 µg/mL; in series [8], 16 µg/mL; in [9], 8 µg/mL; in [10], 16 µg/mL. The MIC in [11] worked out at 4 µg/mL; in series [13], 4 µg/mL; in [14], 4 µg/mL; in series [15] it was 4 µg/mL; in [16] it was 8 µg/mL; in series [17] it was 8 µg/mL. For the same molecule, the MIC was found to be 8 µg/mL in series [18], 4 µg/mL in [19] and 4 µg/mL in series [20]. For the same molecule, the HC50 at 1 h in series [12] is 110 µg/mL.

As for `CCCCCCCCCCn1c[n+](CCCCCCCCCC)cc1C[C@H](NC(=O)[C@H](CCCNC(=N)N)NC(=O)[C@@H](N)CCCNC(=N)N)C(N)=O`, the outcome in series [1] and in series [2] was Active. Further, the “growth inhibition (GI)” value in [3] and in series [4] was “Active” in each case. For the same molecule, the MIC in [5] stood at 4 µg/mL; in series [6], 4 µg/mL; in series [7], 4 µg/mL; in [8], 16 µg/mL; in [9] it was 8 µg/mL; in series [10], 16 µg/mL. In addition, the MIC in series [11], in series [13], in series [14], in series [15], in [16] and in series [17] was 8 µg/mL each time. Moreover, the figures for the MIC in series [18], in series [19] and in series [20] were 16 µg/mL, 8 µg/mL and 8 µg/mL, respectively. In addition, the HC50 at 1 h in series [12] was determined as 116 µg/mL.

For the molecule `CCCCCCCn1c[n+](CCCCCCC)cc1C[C@H](NC(=O)[C@@H](N)CCCNC(=N)N)C(=O)N[C@@H](CCCNC(=N)N)C(N)=O`, the result in series [1] and in series [2] was Active. Besides, the “growth inhibition (GI)” value in series [3] and in series [4] was “Active” throughout. The MIC in series [5] is 8 µg/mL; in series [6], 8 µg/mL; in [7] it was 16 µg/mL; in series [8], 32 µg/mL; in series [9] it was 8 µg/mL; in [10], above 32 µg/mL. Moreover, the MIC in series [11] worked out at 4 µg/mL; in series [13] it was 4 µg/mL; in [14], 2 µg/mL; in [15] it was 2 µg/mL; in series [16], 8 µg/mL; in series [17], 8 µg/mL. Moreover, the MIC in series [18] came out at 4 µg/mL; in series [19], 4 µg/mL; in [20] it was 8 µg/mL. Also, the HC50 at 1 h in series [12] is above 256 µg/mL.

The term MIC denotes the smallest concentration in the dilution series that meets the test's criterion for growth inhibition. By HC50 is commonly meant the concentration giving 50% haemolysis.
